According to patent US12617752B2, “Rapidly metabolized lipid compound” (Beijing Jitai Life Sciences Ltd, priority 2023, dated 2026):

Legend:
[1] = test system: C57BL/6 mice; assay: In vivo delivery of luciferase mRNA lipid nanoparticles in mice (bioluminescence imaging); conditions: intravenous, single dose 0.5 mg/kg luciferase mRNA
How it was run: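 Female C57BL/6 mice, 6-8 weeks old, received luciferase mRNA lipid nanoparticles as a single intravenous dose of 0.5 mg/kg mRNA. At 6 h, D-luciferin given intraperitoneally; 10 min later, mice were imaged under isoflurane anaesthesia. Values are group mean fluorescence intensity and total photon count.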

[2] = Encapsulation efficiency of lipid nanoparticles (Quant-it RiboGreen RNA Assay); assay type: physicochemical; conditions: lipid nanoparticles with luciferase mRNA
How it was run: (§1)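 LNPs of ionizable lipid/cholesterol/phospholipid/PEG-lipid (50/38.5/10/1.5 mol%, N/P 6) were formed by microfluidic mixing with mRNA in pH 4.5 acetate, then buffer-exchanged by ultrafiltration. Size and PDI were measured by DLS. Encapsulation came from RiboGreen fluorescence (485/528 nm) in TE pH 7.5, with and without 0.5% Triton at 37 °C for 30 min.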

[3] = Particle size and PDI of lipid nanoparticles by dynamic light scattering; assay type: physicochemical; conditions: lipid nanoparticles with luciferase mRNA; ionizable lipid/cholesterol/DSPC/DMG-PEG2000 50/38.5/10/1.5 mol%
How it was run: as §1

| Encapsulation efficiency (%) [2] | Particle size (nm) [3] | Particle-size distribution (PDI) [3] | Structure (SMILES) | Total photon count in vivo at 6 hours after administration (Total Flux) [1] |
| --- | --- | --- | --- | --- |
| 96.69% | 81.37 nm | 0.17 | CCCCCCCCCCC(=O)OCCC(C)(C)CCCCN(CCO)CCCCCCCC(=O)OC(CCCCCCCCC)CCCCCCCCC [54b] | 5.71E+10 |
| 94.65% | 90.37 nm | 0.11 | CCCCCCCCCCC(=O)OCCC(C)(C)CCCCN(CCCCO)CCCCCCCC(=O)OC(CCCCCCCCC)CCCCCCCCC [55b] | 1.02E+11 |
| 93.87% | 98.59 nm | 0.16 | CCCCCCCCCC(=O)OCCC(C)(C)CCCCN(CCO)CCCCCCCC(=O)OCC(CCCCCCC)CCCCCCC [56b] | 8.35E+10 |
| 94.15% | 98.23 nm | 0.18 | CCCCCCCCCC(=O)OCCCC(C)(C)CCCN(CCO)CCCCCCCC(=O)OCC(CCCCCCC)CCCCCCC [57b] | 3.86E+10 |
| 68.54% | 187.50 nm | 0.18 | CCCCCCCCCNC(=O)CCCCCCCN(CCO)CCCCCCC(C)(C)C(=O)OC(CCCCCCCC)CCCCCCCC [58a] | 2.72E+10 |
| 92.88% | 112.93 nm | 0.15 | CCCCCCCCCC(=O)OCC1(CCCCCN(CCCO)CCCCCCCC(=O)OCC(CCCCCCC)CCCCCCC)CC1 [58b] | 6.17E+10 |
| 80.27% | 127.23 nm | 0.12 | CCCCCCCCCC(=O)OCCC(C)(C)CCCCN(CCCCO)CCCCCCCC(=O)OCC(CCCCCCC)CCCCCCC [59b] | 1.04E+11 |
| 97.44% | 92.74 nm | 0.15 | CCCCCCCCCCOC(=O)CCCCC(C)(C)CCN(CCCCCCCC(=O)OC(CCCCCCCCC)CCCCCCCCC)C(=O)SCCCCN(C)C [60a] | 1.75E+10 |
| 95.87% | 111.90 nm | 0.09 | CCCCCCCCCOC(=O)CCCCC(C)(C)CCN(CCCCCCCC(=O)OCC(CCCCCCC)CCCCCCC)C(=O)SCCCN(C)C [61a] | 1.32E+10 |
| 89.88% | 98.07 nm | 0.17 | CCCCCCCCCCCOC(=O)CCCCCN(CCO)CCCCC(C)(C)CCC(=O)OC(CCCCCCCC)CCCCCCCC [62a] | 1.20E+10 |
| 84.27% | 165.53 nm | 0.09 | CCCCCCCCCCC(=O)OCC(C)(C)CCCCCN(CCCCO)CCCCCCCC(=O)OCCCC(CCCCCC)CCCCCC [63b] | 2.72E+10 |
| 96.72% | 86.99 nm | 0.15 | CCCCCCCCCCCOC(=O)CCCCC(C)(C)CCN(CCO)CCCCCCCC(=O)OC(CCCCCCCCCC)CCCCCCCCCC [64a] | 9.82E+10 |
| 89.27% | 143.67 nm | 0.09 | CCCCCCCCCC(=O)OCCCC(C)(C)CCCN(CCCCO)CCCCCCCC(=O)OCC(CCCCCCC)CCCCCCC [64b] | 3.36E+10 |
| 95.93% | 95.88 nm | 0.16 | CCCCCCCCCCOC(=O)CCCCC(C)(C)CCN(CCO)CCCCCCCC(=O)OCC(CCCCCCCC)CCCCCCCC [65a] | 6.53E+10 |
| 97.75% | 80.60 nm | 0.16 | CCCCCCCC(CCCCCCC)COC(=O)CCCCCCCN(CCO)CCCCCC(C)(C)COC(=O)CC(CCCCCCC)CCCCCCC [65b] | 1.25E+11 |
| 92.88% | 105.77 nm | 0.11 | CCCCCCCCCCOC(=O)CCCCC(C)(C)CCN(CCCO)CCCCCCCC(=O)OC(CCCCCCCCC)CCCCCCCCC [66a] | 9.31E+10 |

| Encapsulation efficiency (%) [2] | Particle size (nm) [3] | Particle-size distribution (PDI) [3] | Structure (SMILES) | Total photon count in vivo at 6 hours after administration (Total Flux) [1] |
| --- | --- | --- | --- | --- |
| 97.18% | 81.83 nm | 0.17 | CCCCCCCCCC(CCCCCCCCC)OC(=O)CCCCCCCN(CCO)CCCCCC(C)(C)COC(=O)CCCC(CCCCCC)CCCCCC [66b] | 4.35E+10 |
| 91.57% | 111.33 nm | 0.06 | CCCCCCCCCCOC(=O)CCCCC(C)(C)CCN(CCCCO)CCCCCCCC(=O)OC(CCCCCCCCC)CCCCCCCCC [67a] | 6.07E+10 |
| 96.30% | 88.28 nm | 0.23 | CCCCCCCCCC(=O)OCC(C)(C)CCCCCN(CCO)CCCCCCC(=O)OCC(CCCCCCCC)CCCCCCCC [67b] | 1.71E+11 |
| 94.47% | 103.93 nm | 0.04 | CCCCCCCCCCCOC(=O)CCCCC(C)(C)CCN(CCCCO)CCCCCCCC(=O)OC(CCCCCCCCCC)CCCCCCCCCC [68a] | 7.55E+10 |
| 96.31% | 88.33 nm | 0.20 | CCCCCCCCCC(=O)OCC(C)(C)CCCCCN(CCO)CCCCCCC(=O)OCCC(CCCCCCC)CCCCCCC [68b] | 2.88E+11 |
| 96.65% | 107.20 nm | 0.34 | CCCCCCCCCOC(=O)CCCCC(C)(C)CCN(CCO)CCCCCC(=O)OCC(CCCCCCCCC)CCCCCCCCC [69a] | 7.41E+10 |
| 93.85% | 99.05 nm | 0.13 | CCCCCCCCCC(=O)OCC(C)(C)CCCCCN(CCCCO)CCCCCCC(=O)OCC(CCCCCCCC)CCCCCCCC [69b] | 1.52E+11 |
| 96.69% | 86.08 nm | 0.15 | CCCCCCCCCOC(=O)CCCCC(C)(C)CCN(CCO)CCCCCCC(=O)OCC(CCCCCCCC)CCCCCCCC [70a] | 9.33E+10 |
| 96.91% | 96.20 nm | 0.09 | CCCCCCCCCC(=O)OCC(C)(C)CCCCCN(CCCCO)CCCCCCC(=O)OCCC(CCCCCCC)CCCCCCC [70b] | 1.15E+11 |
| 95.95% | 95.59 nm | 0.17 | CCCCCCCCCC(=O)OCCCC(C)(C)CCCN(CCO)CCCCCCCC(=O)OCCC(CCCCCC)CCCCCC [71b] | 1.70E+11 |
| 95.13% | 92.45 nm | 0.12 | CCCCCCCCCCC(=O)OCCCCC(C)(C)CCN(CCO)CCCCCCCC(=O)OCCC(CCCCCCC)CCCCCCC [72b] | 7.01E+10 |
| 94.92% | 93.18 nm | 0.17 | CCCCCCCCCC(=O)OCCCC(C)(C)CCCN(CCO)CCCCCCC(=O)OCCC(CCCCCCC)CCCCCCC [74b] | 7.13E+10 |
| 95.99% | 91.60 nm | 0.19 | CCCCCCCCCC(=O)OCCCC(C)(C)CCCN(CCO)CCCCCCC(=O)OCCCC(CCCCCC)CCCCCC [75b] | 7.05E+10 |
| 94.97% | 91.27 nm | 0.18 | CCCCCCCCCC(=O)OCC(C)(C)CCCCCN(CCCO)CCCCCCC(=O)OCC(CCCCCCCC)CCCCCCCC [76b] | 9.41E+10 |
| 95.88% | 93.16 nm | 0.16 | CCCCCCCCCC(=O)OCC(C)(C)CCCCCN(CCCO)CCCCCCC(=O)OCCC(CCCCCCC)CCCCCCC [77b] | 9.72E+10 |

| Structure (SMILES) | Encapsulation efficiency (%) [2] | Particle size (nm) [3] | Particle-size distribution (PDI) [3] | Total photon count in vivo at 6 hours after administration (Total Flux) [1] |
| --- | --- | --- | --- | --- |
| CCCCCC#CCCOC(=O)CCCCCCCN(CCO)CCCCCCC(C)(C)C(=O)OC(CCCCCCCC)CCCCCCCC [55a] | 73.85% | 126.17 nm | 0.16 | 1.96E+10 |
| CCCCCC/C=C\COC(=O)CCCCCCCN(CCO)CCCCCCC(C)(C)C(=O)OC(CCCCCCCC)CCCCCCCC [57a] | 95.41% | 79.17 nm | 0.17 | 3.42E+10 |
